Reference: patent US9714288B2, “Antisense compounds and uses thereof” (The Regents of the University of California, priority 2014, dated 2017)
In brackets after ≈: the same amount, converted by molar mass. Oligonucleotides are written 5' to 3', each unit as a sugar letter and its base; * is a phosphorothioate linkage, no mark a phosphodiester; rarer units and linkages stand in square brackets, end groups in braces. Plain capitals give the bases only. k = constrained ethyl (cEt); [5mC] = 5-methylcytosine; d = 2'-deoxy (DNA)

Tests used:
[1] = Tolerability of antisense oligonucleotides in BALB/c mice; assay type: in vivo; conditions: 50 mg/kg s.c. twice per week for three weeks, #1 most favorable, #13 least favorable
Protocol: Selected antisense oligonucleotides were then tested for tolerability in vivo. Six week old, male BALB/c mice were injected subcutaneously twice per week for three weeks with 50 mg/kg of an antisense oligonucleotide listed in Table 1 or with PBS. Each treatment group consisted of 4 animals. Two days following the final oligonucleotide administration, the mice were sacrificed and plasma transaminase levels, body weights, and organ weights were evaluated relative to the PBS treated group. Isis numbers 632417, 632461, and 632640 had the most favorable tolerability rankings and were selected as leads. Isis No. 632461 targets human, mouse, and monkey MXD3 sequences with no mismatches and was chosen for use in further studies.

MXD3 mRNA = MXD3 mRNA levels in K-562 cells by quantitative real-time PCR; assay type: cell-based, human; conditions: for MXD3 mRNA at 10 μM oligonucleotide (% control): K-562 cells electroporated with 10 μM, ~24 hours, relative to untreated control; for IC50: K-562 cells, MXD3 mRNA, 0-35.0 μM, approximate values
Source text: Several hundred antisense oligonucleotides that target human MAX Dimerization Protein 3 (MXD3), GENBANK accession number NT_023133.13 truncated 21540000 to 21577000, SEQ ID NO: 1, were synthesized using standard solid phase oligonucleotide synthetic methods. They are chimeric oligonucleotides (“gapmers”) 16 nucleotides in length, composed of a central “gap” region consisting of 10 2′-deoxynucleotides, which is flanked on both sides (5′ and 3′) by three-nucleotide “wings”. The wings are composed of 4′-CH(CH3)—O-2′ modified nucleotides, also known as constrained ethyl or (S)-cEt nucleotides. The internucleoside (backbone) linkages are phosphorothioate throughout the oligonucleotides. All cytosine residues are 5-methylcytosines. The sequences of selected MXD3 targeting antisense oligonucleotides and their start and stop sites along GENBANK accession number NT_023133.13 truncated 21540000 to 21577000 are shown in Table 1 below.
The antisense oligonucleotides were analyzed for their effects on target mRNA levels. K-562 cells were plated at a density of 50,000 cells per well in 96-well plates and were electroporated with 10 μM oligonucleotide or with no oligonucleotide for untreated controls. After approximately 24 hours, RNA was isolated from the cells, and MXD3 mRNA levels were measured by quantitative real-time PCR using primer probe set RTS4263 (forward: 5′-[…]-3′, SEQ ID NO: 2; reverse: 5′-TGGCCAAGGGTTCCATGT-3′, SEQ ID NO: 3; probe: 5′-CTGCAGCCGCTTGCTCCGG-3′, SEQ ID NO: 4). MXD3 mRNA levels were adjusted according to total RNA content, as measured by RIBOGREEN®. Results for selected oligonucleotides are presented as average percent MXD3 mRNA level, relative to untreated control cells, in Table 1.
A subset of the MXD3 targeting antisense oligonucleotides were selected for dose response analysis in K-562 cells. Cells were electroporated with 0, 2.19, 8.75, or 35.0 μM antisense oligonucleotide and analyzed as described above. Results for selected oligonucleotides are presented as approximate IC50 values in Table 1.

Reh cells = assay: Reh cell growth, number of live cells (MTT assay); assay type: cell-based, human; conditions: for IC50: Homo sapiens, experimentally determined, Reh cells; for Average number of live cells × 10^3: Table 9, Reh cells, conjugate 2 μM oligonucleotide, Doxorubicin 2.56 ng/mL, Vincristine 1.18 ng/mL

Row | Compound | Ranking (tolerability) [1] | MXD3 mRNA at 10 μM oligonucleotide (% control) (MXD3 mRNA) | IC50 (MXD3 mRNA) [µM] | IC50 (Reh cells) [ng/mL] | Average number of live cells × 10^3 (Reh cells; 4 hours) | Average number of live cells × 10^3 (Reh cells; 8 hours) | Average number of live cells × 10^3 (Reh cells; 24 hours) | Average number of live cells × 10^3 (Reh cells; 48 hours) | Average number of live cells × 10^3 (Reh cells; 72 hours)
1 | 632407 (antisense k[5mC]*kA*kT*d[5mC]*d[5mC]*dA*d[5mC]*d[5mC]*d[5mC]*dA*d[5mC]*dG*d[5mC]*k[5mC]*kG*kG) [compound 632407] | 12 | 60.5 | 1.64 | – | – | – | – | – | –
2 | 632417 (antisense kG*kG*k[5mC]*d[5mC]*d[5mC]*dT*dG*dG*dA*dG*d[5mC]*dG*dA*kA*k[5mC]*k[5mC]) [compound 632417] | 1 | 38.3 | 7.05 | – | – | – | – | – | –
3 | 632424 (antisense kA*kG*k[5mC]*d[5mC]*dG*d[5mC]*dA*dG*d[5mC]*d[5mC]*d[5mC]*dA*d[5mC]*k[5mC]*k[5mC]*kT) [compound 632424] | 9 | 94.4 | 1.64 | – | – | – | – | – | –
4 | 632460 (antisense kA*kT*kA*dA*d[5mC]*d[5mC]*dA*dT*dG*d[5mC]*dT*d[5mC]*dG*kG*k[5mC]*k[5mC]) [compound 632460] | 13 | 59.0 | 2.95 | – | – | – | – | – | –
5 | 632461 (antisense k[5mC]*kA*k[5mC]*dA*dG*dG*dG*dA*d[5mC]*dG*d[5mC]*dA*dT*kA*kA*k[5mC]) [compound 632461] | 2 | 59.8 | 8.99 | – | – | – | – | – | –
6 | 632527 (antisense k[5mC]*kA*kT*d[5mC]*dA*dT*dA*dG*d[5mC]*d[5mC]*dA*dG*dG*k[5mC]*kG*k[5mC]) [compound 632527] | 8 | 76.5 | 9.23 | – | – | – | – | – | –
7 | 632528 (antisense kA*kG*kG*dA*dA*d[5mC]*dA*dT*d[5mC]*dA*dT*dA*dG*k[5mC]*k[5mC]*kA) [compound 632528] | 5 | 63.6 | 5.89 | – | – | – | – | – | –
8 | 632634 (antisense kG*kG*kA*dT*dT*dA*d[5mC]*dT*dG*dT*d[5mC]*d[5mC]*dT*kA*kG*kG) [compound 632634] | 10 | 47.4 | 5.71 | – | – | – | – | – | –
9 | 632640 (antisense k[5mC]*kA*kA*dG*d[5mC]*dA*dA*d[5mC]*dA*dA*dG*dT*dG*kG*kG*k[5mC]) [compound 632640] | 3 | 65.6 | 0.38 | – | – | – | – | – | –
10 | 632669 (antisense kT*kA*kA*dA*d[5mC]*dA*d[5mC]*dT*dT*dG*dT*d[5mC]*dA*kG*kA*kG) [compound 632669] | 4 | 34.0 | 9.05 | – | – | – | – | – | –
11 | 632672 (antisense kA*kT*k[5mC]*d[5mC]*dA*dT*d[5mC]*d[5mC]*dG*dA*dG*dA*dA*k[5mC]*k[5mC]*kA) [compound 632672] | 6 | 50.3 | 4.76 | – | – | – | – | – | –
12 | 632673 (antisense k[5mC]*kA*k[5mC]*dA*dT*d[5mC]*dA*dT*d[5mC]*d[5mC]*dA*dT*d[5mC]*k[5mC]*kG*kA) [compound 632673] | 7 | 27.5 | 5.58 | – | – | – | – | – | –
13 | 632682 (antisense kG*kT*k[5mC]*dA*dT*dT*d[5mC]*dA*dA*d[5mC]*dA*dA*dG*kA*kA*kG) [compound 632682] | 11 | 28.4 | 5.61 | – | – | – | – | – | –
14 | COc1cccc2c1C(=O)c1c(O)c3c(c(O)c1C2=O)C[C@@](O)(C(=O)CO)C[C@@H]3O[C@H]1C[C@H](N)[C@H](O)[C@H](C)O1 [Doxo, Doxorubicin] | – | – | – | 2.56 (≈ 4.71 nM) | 22.3 × 10^3 | 22.9 × 10^3 | 30 × 10^3 | 37 × 10^3 | 41.8 × 10^3
15 | CC[C@]1(O)C[C@H]2CN(CCc3c([nH]c4ccccc34)[C@@](C(=O)OC)(c3cc4c(cc3OC)N(C=O)[C@H]3[C@@](O)(C(=O)OC)[C@H](OC(C)=O)[C@]5(CC)C=CCN6CC[C@]43[C@@H]65)C2)C1 [Vcr, Vincristine] | – | – | – | 1.18 (≈ 1.43 nM) | 20.2 × 10^3 | 19.6 × 10^3 | 27.8 × 10^3 | 33.1 × 10^3 | 34.8 × 10^3
